Measured values taken from article PMC7376443 (Bioorganic & medicinal chemistry letters, 2020).

Tests used:
Assay type in all cases: biochemical
[1] = molecular target: T1, ChTS-DHFR (thymidylate synthase-dihydrofolate reductase), TS activity (Cryptosporidium hominis, UniProt A0A0S4TER9); assay: radiolabeled CH2H4F to H2F turnover by HPLC, single concentration […]
[2] = molecular target: human TS (thymidylate synthase, hTS) (Homo sapiens, UniProt P04818); assay: TS activity assay, enzyme preincubated with compound without dUMP, […]
[3] = molecular target: T1, ChTS-DHFR (thymidylate synthase-dihydrofolate reductase), TS activity

Sequence of human TS (thymidylate synthase, hTS) (P04818 2-313): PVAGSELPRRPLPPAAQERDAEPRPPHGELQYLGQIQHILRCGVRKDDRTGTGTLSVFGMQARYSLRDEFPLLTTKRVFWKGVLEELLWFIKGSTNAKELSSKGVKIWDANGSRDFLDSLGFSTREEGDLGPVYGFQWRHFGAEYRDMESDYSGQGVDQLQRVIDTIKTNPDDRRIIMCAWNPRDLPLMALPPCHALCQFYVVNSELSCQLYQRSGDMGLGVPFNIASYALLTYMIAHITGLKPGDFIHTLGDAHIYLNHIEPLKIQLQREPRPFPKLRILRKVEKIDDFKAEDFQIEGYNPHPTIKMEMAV

Substance | % Inhibition of ChTS Activity at 500 μM [1] | % inhibition at 500 uM [2] | IC50 [3]
CD 11057 [compound 7] | 46.0 ± 0.8 | – | –
HTS 00950 [compound 6] | – | ~ 50 | 172 ± 11 µM
HTS 00967 [compound 10] | 55 ± 1 | – | –
HTS 03850 [compound 2] | 76 ± 9 | – | –
